{
  "source": "PubChem BioAssay (NCI)",
  "test_in_all_cases": "NCI tumour cell line growth inhibition, 48 h",
  "key": {"HCT-15 colon": {"system": "HCT-15 colon"}, "SK-MEL-2 melanoma": {"system": "SK-MEL-2 melanoma"}, "OVCAR-5 ovarian": {"system": "OVCAR-5 ovarian"}, "K-562 leukemia": {"system": "K-562 leukemia"}, "SK-MEL-28 melanoma": {"system": "SK-MEL-28 melanoma"}, "DMS 273 small cell lung": {"system": "DMS 273 small cell lung"}, "SF-295 CNS": {"system": "SF-295 CNS"}, "KM12 colon": {"system": "KM12 colon"}, "HOP-62 NSCLC": {"system": "HOP-62 NSCLC"}, "HT29 colon": {"system": "HT29 colon"}, "NCI-H522 lung": {"system": "NCI-H522 lung"}, "HCC-2998 colon": {"system": "HCC-2998 colon"}, "SNB-75 CNS": {"system": "SNB-75 CNS"}, "MALME-3M melanoma": {"system": "MALME-3M melanoma"}, "HL-60(TB) leukemia": {"system": "HL-60(TB) leukemia"}, "OVCAR-3 ovarian": {"system": "OVCAR-3 ovarian"}, "NCI-H460 lung": {"system": "NCI-H460 lung"}, "UACC-62 melanoma": {"system": "UACC-62 melanoma"}, "SF-539 CNS": {"system": "SF-539 CNS"}, "UACC-257 melanoma": {"system": "UACC-257 melanoma"}, "COLO 205 colon": {"system": "COLO 205 colon"}, "HOP-18 NSCLC": {"system": "HOP-18 NSCLC"}, "MCF7 breast": {"system": "MCF7 breast"}, "DMS 114 small cell lung": {"system": "DMS 114 small cell lung"}, "OVCAR-4 ovarian": {"system": "OVCAR-4 ovarian"}, "DLD-1 colon": {"system": "DLD-1 colon"}, "CCRF-CEM leukemia": {"system": "CCRF-CEM leukemia"}, "RPMI-8226 leukemia": {"system": "RPMI-8226 leukemia"}, "SNB-78 CNS": {"system": "SNB-78 CNS"}, "XF 498 CNS": {"system": "XF 498 CNS"}, "HOP-92 NSCLC": {"system": "HOP-92 NSCLC"}, "UO-31 renal": {"system": "UO-31 renal"}, "NCI-H23 lung": {"system": "NCI-H23 lung"}, "SW-620 colon": {"system": "SW-620 colon"}, "CAKI-1 renal": {"system": "CAKI-1 renal"}, "NCI/ADR-RES ovarian": {"system": "NCI/ADR-RES ovarian"}, "HCT-116 colon": {"system": "HCT-116 colon"}, "IGROV1 ovarian": {"system": "IGROV1 ovarian"}, "EKVX NSCLC": {"system": "EKVX NSCLC"}, "NCI-H226 lung": {"system": "NCI-H226 lung"}, "KM20L2 colon": {"system": "KM20L2 colon"}, "SN12C renal": {"system": "SN12C renal"}, "RXF 393 renal": {"system": "RXF 393 renal"}, "SF-268 CNS": {"system": "SF-268 CNS"}, "A498 renal": {"system": "A498 renal"}, "SK-OV-3 ovarian": {"system": "SK-OV-3 ovarian"}, "M19-MEL melanoma": {"system": "M19-MEL melanoma"}, "OVCAR-8 ovarian": {"system": "OVCAR-8 ovarian"}, "A549 NSCLC": {"system": "A549 NSCLC"}, "P388/ADR leukemia": {"system": "P388/ADR leukemia"}, "LOX IMVI melanoma": {"system": "LOX IMVI melanoma"}, "SNB-19 CNS": {"system": "SNB-19 CNS"}, "SK-MEL-5 melanoma": {"system": "SK-MEL-5 melanoma"}, "U251 CNS": {"system": "U251 CNS"}, "SN12K1 renal": {"system": "SN12K1 renal"}, "MOLT-4 leukemia": {"system": "MOLT-4 leukemia"}, "P388 leukemia": {"system": "P388 leukemia"}},
  "note": "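1) Cells in 96-well plates. 2) Compound, 48 h, 5 concentrations. 3) Linear interpolation between surrounding doses. 4) Unreached endpoint = highest concentration. TGI denotes the concentration required for complete inhibition of growth.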",
  "data": [
    {"smiles": "O=NN1C(c2ccccc2)C2CCCC(C2=O)C1c1ccccc1", "note": "(configuration not stated)", "values": [
      {"measurement": "TGI", "setting": "HCT-15 colon", "value": "> 87.7", "unit": "µM"},
      {"measurement": "TGI", "setting": "SK-MEL-2 melanoma", "value": 40.5, "unit": "µM"},
      {"measurement": "TGI", "setting": "OVCAR-5 ovarian", "value": "> 100", "unit": "µM"},
      {"measurement": "TGI", "setting": "K-562 leukemia", "value": 55.3, "unit": "µM"},
      {"measurement": "TGI", "setting": "SK-MEL-28 melanoma", "value": 44.3, "unit": "µM"},
      {"measurement": "TGI", "setting": "DMS 273 small cell lung", "value": 55.2, "unit": "µM"},
      {"measurement": "TGI", "setting": "SF-295 CNS", "value": "> 84.2", "unit": "µM"},
      {"measurement": "TGI", "setting": "KM12 colon", "value": 99.2, "unit": "µM"},
      {"measurement": "TGI", "setting": "HOP-62 NSCLC", "value": 56, "unit": "µM"},
      {"measurement": "TGI", "setting": "HT29 colon", "value": 40.1, "unit": "µM"},
      {"measurement": "TGI", "setting": "NCI-H522 lung", "value": 46.4, "unit": "µM"},
      {"measurement": "TGI", "setting": "HCC-2998 colon", "value": 34.4, "unit": "µM"},
      {"measurement": "TGI", "setting": "SNB-75 CNS", "value": 61, "unit": "µM"},
      {"measurement": "TGI", "setting": "MALME-3M melanoma", "value": 19.8, "unit": "µM"},
      {"measurement": "TGI", "setting": "HL-60(TB) leukemia", "value": 44.7, "unit": "µM"},
      {"measurement": "TGI", "setting": "OVCAR-3 ovarian", "value": 9.28, "unit": "µM"},
      {"measurement": "TGI", "setting": "NCI-H460 lung", "value": 48.3, "unit": "µM"},
      {"measurement": "TGI", "setting": "UACC-62 melanoma", "value": 59, "unit": "µM"},
      {"measurement": "TGI", "setting": "SF-539 CNS", "value": "> 100", "unit": "µM"},
      {"measurement": "TGI", "setting": "UACC-257 melanoma", "value": 66.2, "unit": "µM"},
      {"measurement": "TGI", "setting": "COLO 205 colon", "value": 32, "unit": "µM"},
      {"measurement": "TGI", "setting": "HOP-18 NSCLC", "value": "> 25.2", "unit": "µM"},
      {"measurement": "TGI", "setting": "MCF7 breast", "value": 46.4, "unit": "µM"},
      {"measurement": "TGI", "setting": "DMS 114 small cell lung", "value": "> 93.8", "unit": "µM"},
      {"measurement": "TGI", "setting": "OVCAR-4 ovarian", "value": 66.3, "unit": "µM"},
      {"measurement": "TGI", "setting": "DLD-1 colon", "value": "> 100", "unit": "µM"},
      {"measurement": "TGI", "setting": "CCRF-CEM leukemia", "value": "> 83.6", "unit": "µM"},
      {"measurement": "TGI", "setting": "RPMI-8226 leukemia", "value": 48.4, "unit": "µM"},
      {"measurement": "TGI", "setting": "SNB-78 CNS", "value": "> 100", "unit": "µM"},
      {"measurement": "TGI", "setting": "XF 498 CNS", "value": 33.3, "unit": "µM"},
      {"measurement": "TGI", "setting": "HOP-92 NSCLC", "value": 55.6, "unit": "µM"},
      {"measurement": "TGI", "setting": "UO-31 renal", "value": "> 76.2", "unit": "µM"},
      {"measurement": "TGI", "setting": "NCI-H23 lung", "value": 48.3, "unit": "µM"},
      {"measurement": "TGI", "setting": "SW-620 colon", "value": "> 100", "unit": "µM"},
      {"measurement": "TGI", "setting": "CAKI-1 renal", "value": 94.1, "unit": "µM"},
      {"measurement": "TGI", "setting": "NCI/ADR-RES ovarian", "value": "> 89.6", "unit": "µM"},
      {"measurement": "TGI", "setting": "HCT-116 colon", "value": "> 63.1", "unit": "µM"},
      {"measurement": "TGI", "setting": "IGROV1 ovarian", "value": "> 92.7", "unit": "µM"},
      {"measurement": "TGI", "setting": "EKVX NSCLC", "value": "> 79.5", "unit": "µM"},
      {"measurement": "TGI", "setting": "NCI-H226 lung", "value": 71, "unit": "µM"},
      {"measurement": "TGI", "setting": "KM20L2 colon", "value": 25.9, "unit": "µM"},
      {"measurement": "TGI", "setting": "SN12C renal", "value": 69.9, "unit": "µM"},
      {"measurement": "TGI", "setting": "RXF 393 renal", "value": 41.8, "unit": "µM"},
      {"measurement": "TGI", "setting": "SF-268 CNS", "value": "> 100", "unit": "µM"},
      {"measurement": "TGI", "setting": "A498 renal", "value": "> 94.1", "unit": "µM"},
      {"measurement": "TGI", "setting": "SK-OV-3 ovarian", "value": 73.6, "unit": "µM"},
      {"measurement": "TGI", "setting": "M19-MEL melanoma", "value": 37.1, "unit": "µM"},
      {"measurement": "TGI", "setting": "OVCAR-8 ovarian", "value": "> 100", "unit": "µM"},
      {"measurement": "TGI", "setting": "A549 NSCLC", "value": "> 100", "unit": "µM"},
      {"measurement": "TGI", "setting": "P388/ADR leukemia", "value": 45.9, "unit": "µM"},
      {"measurement": "TGI", "setting": "LOX IMVI melanoma", "value": 54.9, "unit": "µM"},
      {"measurement": "TGI", "setting": "SNB-19 CNS", "value": "> 92.5", "unit": "µM"},
      {"measurement": "TGI", "setting": "SK-MEL-5 melanoma", "value": 35.7, "unit": "µM"},
      {"measurement": "TGI", "setting": "U251 CNS", "value": "> 84.9", "unit": "µM"},
      {"measurement": "TGI", "setting": "SN12K1 renal", "value": "> 71.3", "unit": "µM"},
      {"measurement": "TGI", "setting": "MOLT-4 leukemia", "value": "> 78.1", "unit": "µM"},
      {"measurement": "TGI", "setting": "P388 leukemia", "value": "> 64.1", "unit": "µM"}
    ]}
  ]
}
